The values below come from patent US20220117867A1, “ANTIMICROBIAL ACTIVITY OF FATTY ACID ESTERS AND COMBINATIONS THEREOF” (SYMRISE AG, priority 2019, published 2022).

Converted amounts (≈) assume the structure as drawn.

Format in all cases: cell-based
The subject of one test is Peptoniphilus lacrimalis. The test can be described thus: Minimum Inhibitory Concentration (MIC) Method B. Here is the method:
(§1) B) Minimum Inhibitory Concentration (MIC) Method B Test conditions: Evaluation of bactericidal and fungicidal activity in qualitative suspension test (VAH-standard methods, 04-2015). 5 ml of the appropriate dilution of the test product is mixed with 0.1 ml of test suspension and mixed well. After the required action times, the mixture was mixed again. Each 0.1 ml were removed and placed in 5 ml of CSL-bouillon without neutralizing agents.

Another test has as its system Streptococcus mutans. Nature of the test: Minimum Inhibitory Concentration (MIC) Method B. The protocol: as §1
For the next test, the system named is Trichophyton rubrum. The test can be described thus: Minimum Inhibitory Concentration (MIC) Method B. Here is the method:
as §1

Test [1] has as its system Staphylococcus epidermidis. Nature of the test: Minimum Inhibitory Concentration (MIC) Method A. As to conditions: read-out: MIC. Here is the method: (§2) A) Minimum Inhibitory Concentration (MIC) Method A
(§3) The MIC test is a test on growth inhibition. Estimation of Minimum Inhibitory Concentration (MIC) is executed in 96 well plates. Through the comparison of bacterial growth curves with positive and negative controls via optical density (OD), different concentrations of given test substances are evaluated.
(§4) Bacteria are cultivated under adjusted conditions based on information of the German Collection of Microorganisms and Cell Cultures (DSMZ) and stored in 50% Glycerol prior to use. Afterwards, the following method was applied:
(§5) Adding growth medium (according to microorganism) to each well of the microplate.
(§6) Adding the test-substances in different concentrations, positive controls (water controls only with medium) and negative controls (benchmarks according to organism).
(§7) Adding the microorganism in a concentration of 10^6 CFU/ml (CFU=colony forming units). Incubation of the microplates at appropriate conditions.
(§8) Aerobic microorganism: optical density is continuously measured (microplate reader) during incubation.
(§9) According to resulting growth curves, substance concentrations are labelled either as inhibiting or normal growth and MIC is defined as the lowest concentration where a clear inhibition is visible. Experiments at concentration limits (highest concentration labelled as growth and lowest concentration labelled as inhibiting) are performed at least twice.

For another test, the system named is Staphylococcus aureus. The test can be described thus: Minimum Inhibitory Concentration (MIC) Method A. The following applies: read-out: MIC. Here is the method:
as §2, §3, §4, §5, §6, §7, §8, §9

The test system of test [2] is Escherichia coli. Nature of the test: Minimum Inhibitory Concentration (MIC) Method A. As to conditions: read-out: MIC. The protocol:
as §2, §3, §4, §5, §6, §7, §8, §9

Test [3] deals with Aspergillus brasiliensis. The test can be described thus: Minimum Inhibitory Concentration (MIC) Method A. As to conditions: read-out: MIC. The protocol: as §2, §3, §4, §5, §6, §7, §8, §9
Test [4] has as its system Staphylococcus hominis. The test can be described thus: Minimum Inhibitory Concentration (MIC) Method B, DIN 58940; Synergy Index according to Kull. The following applies: Method B (Example 5), S. hominis, single substance. Here is the method: (§10) B) Minimum Inhibitory Concentration (MIC) Method B
(§11) Test conditions: Evaluation of bactericidal and fungicidal activity in qualitative suspension test (VAH-standard methods, 04-2015). 5 ml of the appropriate dilution of the test product is mixed with 0.1 ml of test suspension and mixed well. After the required action times, the mixture was mixed again. Each 0.1 ml were removed and placed in 5 ml of CSL-bouillon without neutralizing agents.
(§12) In order to calculate the synergy index with MIC values, the Kull equation (I) was used as follows:
(§13) SI=(MICmixture×PA)/MICA+(MICmixture×PB)/MICB (I)
(§14) The synergistic activity of 3-hydroxypropyl caprylate and glyceryl caprylate on several bacterial and fungal reference strains for application in either Deodorant application or as preservative was determined by measuring minimum inhibitory concentrations (MIC values) according to DIN 58940 and method B (method section above).

The test system of test [5] is Escherichia coli. The test is described as above. As to conditions: Method B (Example 5), E. coli, single substance. Here is the method: as §10, §11, §12, §13, §14
Test [6] concerns Aspergillus brasiliensis. The description is as above. The following applies: Method B (Example 5), A. brasiliensis, single substance. Here is the method: as §10, §11, §12, §13, §14
The next test deals with Epidermophyton floccosum. The test is described as above. As to conditions: single substance. Here is the method:
as §10
5 ml of the appropriate dilution of the test product is mixed with 0.1 ml of test suspension and mixed well. After the required action times, the mixture was mixed again. Each 0.1 ml were removed and placed in 5 ml of CSL-bouillon without neutralizing agents.
as §12, §13
SI is the Synergy Index according to Kull
MICA is the MIC value for Substance A
MICB is the MIC value for Substance B
MICmixture is the MIC value for the mixture of substances A and B
PA is the proportion of the substance A in the mixture
PB is the proportion of the substance B in the mixture

Test [7] has as its system Staphylococcus hominis. The test can be described thus: Minimum Inhibitory Concentration (MIC) Method A. The protocol: (§15) A) Minimum Inhibitory Concentration (MIC) Method A The MIC test is a test on growth inhibition. Estimation of Minimum Inhibitory Concentration (MIC) is executed in 96 well plates. Through the comparison of bacterial growth curves with positive and negative controls via optical density (OD), different concentrations of given test substances are evaluated. Bacteria are cultivated under adjusted conditions based on information of the German Collection of Microorganisms and Cell Cultures (DSMZ) and stored in 50% Glycerol prior to use. Afterwards, the following method was applied: Adding growth medium (according to microorganism) to each well of the microplate. Adding the test-substances in different concentrations, positive controls (water controls only with medium) and negative controls (benchmarks according to organism). Adding the microorganism in a concentration of 10^6 CFU/ml (CFU=colony forming units). Incubation of the microplates at appropriate conditions. Aerobic microorganism: optical density is continuously measured (microplate reader) during incubation. Anaerobic microorganism: incubation in an anaerobic chamber, measurement of the optical density at the end of the incubation, comparison of the results with positive and negative controls. According to resulting growth curves, substance concentrations are labelled either as inhibiting or normal growth and MIC is defined as the lowest concentration where a clear inhibition is visible. Experiments at concentration limits (highest concentration labelled as growth and lowest concentration labelled as inhibiting) are performed at least twice.

Another test has as its system Corynebacterium xerosis. Nature of the test: Minimum Inhibitory Concentration (MIC) Method A. The following applies: read-out: MIC. The protocol:
as §15

In another test the test system is Fusobacterium nucleatum. Nature of the test: Minimum Inhibitory Concentration (MIC) Method A. Here is the method: as §15
A further test deals with Prevotella intermedia. Nature of the test: Minimum Inhibitory Concentration (MIC) Method A. The protocol:
as §15

Another test concerns Candida albicans. Nature of the test: Minimum Inhibitory Concentration (MIC) Method A. Here is the method: as §15
The test system of the next test is Porphyromonas gingivalis. The test can be described thus: Minimum Inhibitory Concentration (MIC) Method A. The protocol: as §15
Another test relates to human sebaceous glands. The test can be described thus: Sebum secretion in cultured micro-dissected human sebaceous glands. The following applies: human sebaceous glands of Donor 1 and Donor 2; six days culture; different concentrations; vs untreated control. The protocol: Additional tests were performed with human sebaceous glands in order to verify the modulatory activity of a compound on sebum secretion. For this sebaceous glands had been micro-dissected and cultured with medium. The medium without any supplement served as untreated control. Medium with 5 μM Capsaicin served as positive control. Additionally, culture medium was supplemented with different concentrations of 3-hydroxypropyl caprylate. After six days the sebaceous glands were collected and lipids and proteins quantified. The total lipid amount being representative of sebum production was obtained by normalizing the quantified lipids upon the quantified proteins (i.e. mg of lipids/mg of proteins).

As usually defined, the MIC is the lowest concentration that inhibits growth of the organism. Regarding `CCCCCCCC(=O)OCCCO` [3-hydroxypropyl caprylate], the minimal inhibitory concentration (MIC) is 1000 µg/mL (≈ 4940 µM) in the test with Peptoniphilus lacrimalis; 5000 µg/mL (≈ 24700 µM) in the test on Streptococcus mutans; 500 µg/mL (≈ 2470 µM) against Trichophyton rubrum; 500 µg/mL (≈ 2470 µM) in test [1]; 500 µg/mL (≈ 2470 µM) in the test on Staphylococcus aureus; 1000 µg/mL (≈ 4940 µM) in the test with Escherichia coli [2]. Further, the minimal inhibitory concentration (MIC) in the test with Aspergillus brasiliensis [3] came to 1000 µg/mL (≈ 4940 µM); in the test with Staphylococcus hominis [4] it was 1000 µg/mL; in the test on Escherichia coli [5] it was 1000 µg/mL; in the test on Aspergillus brasiliensis [6] it was 1000 µg/mL; with Epidermophyton floccosum, 500 µg/mL; with Staphylococcus hominis [7], 1000 µg/mL (≈ 4940 µM). Moreover, the MIC in the test on Corynebacterium xerosis is 500 µg/mL (≈ 2470 µM); in the test with Fusobacterium nucleatum, 250 µg/mL (≈ 1240 µM); in the test on Prevotella intermedia, 125 µg/mL (≈ 618 µM); in the test with Candida albicans, 500 µg/mL (≈ 2470 µM); against Porphyromonas gingivalis, 250 µg/mL (≈ 1240 µM). For the same molecule, the “relative change in total lipids (mg of lipids/mg of proteins), representative of sebum production” value in the test on human sebaceous glands is “concentration dependent reduction of total lipids”.
